From ChEMBL document CHEMBL1153192, “Macrocyclic BACE-1 inhibitors acutely reduce Abeta in brain after po application” (Bioorg Med Chem Lett, 2010)

Legend:
MDR1 = experiment: Apparent permeability from apical to basolateral side of MDCK cells expressing MDR1; assay type: ADME, cell-based, Canis lupus familiaris; conditions: dog
[1] = Plasma concentration in APP50/16 tg mouse at 60 umol/kg, po after 4 hrs; assay type: ADME, organism-based; conditions: APP50/16 transgenic
[2] = Drug level in APP50/16 tg mouse brain at 60 umol/kg, po after 4 hrs; assay type: ADME, organism-based; conditions: APP50/16 transgenic, read-out: Drug uptake
[3] = Dissociation constant, pKa of the compound; assay type: physicochemical

For `CC(C)c1cccc(CNC[C@@H](O)[C@@H]2Cc3cccc(c3)OCCCCNc3cccc(c3)C(=O)N2)c1`, which Papp A→B (MDR1) is on record?
The Papp A→B was 2 ×10⁻⁶ cm/s.

Which results are given for `Cc1cc2cc(n1)OCCCCOc1cccc(c1)C[C@@H]([C@H](O)CNCc1cccc(C(C)C)c1)NC2=O`?
concentration at 4 h [1]: 30 nM; Papp A→B (MDR1): 1.3 ×10⁻⁶ cm/s; concentration at 4 h [2]: 40 nM

Which Papp A→B (MDR1) does the source give for `COCc1cc2cc(c1)C(=O)N[C@H]([C@H](O)CNCc1cccc(C(C)C)c1)Cc1cccc(c1)OCCCCN2` here?
Its Papp A→B is 0.16 ×10⁻⁶ cm/s.

Which pKa [3] does the source give for `Cc1cc2cc(n1)OCCCCOc1cccc(c1)C[C@@H]([C@H](O)CNC(C)c1cccc(C(C)C)c1)NC2=O` (stereo not given in full) here?
The pKa was 8.5.

And the Papp A→B (MDR1)?
The Papp A→B was 1.3 ×10⁻⁶ cm/s.

For `COCc1cc2cc(c1)C(=O)N[C@H]([C@H](O)CNC(CF)c1cccc(C(C)(C)C)c1)Cc1cccc(c1)OCCCCN2` (stereo not given in full), which pKa [3] is on record?
Its pKa is 7.2.

What about the Papp A→B (MDR1) of the same molecule?
Its Papp A→B is 3.8 ×10⁻⁶ cm/s.

Which Papp A→B (MDR1) does the source give for `COCc1cc2cc(c1)C(=O)N[C@H]([C@H](O)CNC(COC)c1cccc(C(C)(C)C)c1)Cc1cccc(c1)OCCCCN2` (stereo not given in full) here?
Its Papp A→B is 1.3 ×10⁻⁶ cm/s.

With `CCCS(=O)(=O)N(C)c1cc2cc(c1)C(=O)N[C@H]([C@H](O)CNCc1cccc(C(C)C)c1)Cc1cccc(c1)OCCCCN2` as the molecule, how does the Papp A→B (MDR1) read?
The Papp A→B was 0.95 ×10⁻⁶ cm/s.

Which Papp A→B (MDR1) does the source give for `CC(C)c1cccc(CNC[C@@H](O)[C@@H]2Cc3cccc(c3)OCCCCNc3cc(cc(N4C=COC4)c3)C(=O)N2)c1` here?
Its Papp A→B is 0.11 ×10⁻⁶ cm/s.

For `COCc1cc2cc(c1)C(=O)N[C@H]([C@H](O)CNC1(c3cccc(C(C)C)c3)CC1)Cc1cccc(c1)OCCCCN2`, which concentration at 4 h [1] is on record?
Its concentration at 4 h is 1200 nM.

And the pKa [3]?
The pKa was 7.3.

And the Papp A→B (MDR1)?
Its Papp A→B is 3.1 ×10⁻⁶ cm/s.

What about the concentration at 4 h [2] of the same molecule?
Its concentration at 4 h is 250 nM.

Which Papp A→B (MDR1) does the source give for `CC(C)c1cccc(C2(NC[C@@H](O)[C@@H]3Cc4cccc(c4)OCCCCOc4cc(cc(N5CCCC5=O)c4)C(=O)N3)CC2)c1` here?
The Papp A→B was 0.4 ×10⁻⁶ cm/s.

Which Papp A→B (MDR1) does the source give for `CCCS(=O)(=O)N(C)c1cc2cc(c1)C(=O)N[C@H]([C@H](O)CNC1(c3cccc(C(C)C)c3)CC1)Cc1cccc(c1)OCCCCN2` here?
The Papp A→B was 0.28 ×10⁻⁶ cm/s.

With `COCc1cc2cc(c1)C(=O)N[C@H]([C@H](O)CNC(C)(C)c1cccc(C(C)C)c1)Cc1cccc(c1)OCCCCN2` as the molecule, how does the Papp A→B (MDR1) read?
The Papp A→B was 1.8 ×10⁻⁶ cm/s.

With `COCc1cc2cc(c1)C(=O)N[C@H]([C@H](O)CNC1(c3cccc(C(C)(C)C)c3)CCC1)Cc1cccc(c1)OCCCCN2` as the molecule, how does the Papp A→B (MDR1) read?
The Papp A→B was 1.2 ×10⁻⁶ cm/s.

For `COCc1cc2cc(n1)OCCCCOc1cccc(c1)C[C@@H]([C@H](O)CNC1(c3cccc(C(C)C)c3)CC1)NC2=O`, which concentration at 4 h [1] is on record?
The concentration at 4 h was 2200 nM.

And the Papp A→B (MDR1)?
The Papp A→B was 4.9 ×10⁻⁶ cm/s.

And the concentration at 4 h [2]?
The concentration at 4 h was 540 nM.

With `COCc1cc2cc(c1)C(=O)N[C@H]([C@H](O)CNC1(c3cccc(C(C)(C)C)c3)CCCC1)Cc1cccc(c1)OCCCCN2` as the molecule, how does the Papp A→B (MDR1) read?
Its Papp A→B is 1.4 ×10⁻⁶ cm/s.

With `Cc1cc2cc(n1)OCCCCOc1cccc(c1)C[C@@H]([C@H](O)CNC1(c3cccc(C(C)C)c3)CC1)NC2=O` as the molecule, how does the concentration at 4 h [1] read?
The concentration at 4 h was 3000 nM.

What about the Papp A→B (MDR1) of the same molecule?
Its Papp A→B is 4 ×10⁻⁶ cm/s.

And the concentration at 4 h [2]?
The concentration at 4 h was 320 nM.

With `Cc1cc2cc(n1)NCCCCOc1cccc(c1)C[C@@H]([C@H](O)CNCc1cccc(C(C)C)c1)NC2=O` as the molecule, how does the Papp A→B (MDR1) read?
Its Papp A→B is 0.17 ×10⁻⁶ cm/s.

What does the source list for `COCc1cc2cc(c1)C(=O)N[C@H]([C@H](O)CNC(c1cccc(C(C)(C)C)c1)C(F)(F)F)Cc1cccc(c1)OCCCCN2` (stereo not given in full)?
pKa [3]: 3.8; Papp A→B (MDR1): 5.6 ×10⁻⁶ cm/s
